Experimental data taken from patent publication US20190054064A1, “VITAMIN C AND VITAMIN K COMPOUND FOR TREATING PANCREATIC CANCER” (IC-MedTech Corp., priority 2014, published 2019).
Starred links: 1 amine or outer side, 2 acyl side, 3 side chain; linkers in the order of their positions; H or OH if unused. Positions of bridges follow the written chain, without caps; N, C: chain ends. Non-standard residues stand in square brackets, D forms with d. Residues, ends and D or L forms follow the SMILES beside them. Chains are numbered I, II in the order given. Actinocin(9to1) = Cc1c2oc3c(C)ccc(C(=O)[*:1])c3nc-2c(C(=O)[*:2])c(N)c1=O; NMeV = CN[C@H](C(=O)O)C(C)C; Sar = CNCC(=O)O

Columns and labels:
Mia PaCa-2 = test: Soft agar growth assay (Alamar Blue), Example 2, Mia PaCa-2; format: cell-based, human; details: Mia PaCa-2, soft agar, 8 days
Experimental: (§1) A stock solutions (1,000×) of menadione (VK3) were prepared in DMSO and a stock solution of calcium L-ascorbate dihydrate (VC) (1,000×) was prepared in water. All stock solutions were prediluted 1:62.5 first in medium and finally diluted to the final assay concentrations. Actinomycin D was used as a reference.
(§2) Suspension cell culture plates (96-well) were prepared. The soft agar bottom layer (100 μL, 0.6% final concentration in complete medium) was poured and left to solidify. The soft agar top layer (50 μL, 0.4% final concentration) containing the corresponding cells and cell number were then added on top, solidified, and incubated overnight at 37° C., 10% CO2. Next day, the test compounds, DMSO, or actinomycin D were added at predetermined final concentrations. […] Finally, the assay was developed using Alamar Blue and upon 0.5-5 hrs of incubation at 37° C. and fluorescence intensity was determined (excitation: 560 nm; emission: 590 nm). […]
(§3) Raw data were converted into percent soft agar growth relative to high controls (solvent 0.2% DMSO) and low controls (10^−5M staurosporine), which were set to 100% and 0%, respectively. IC50 values were calculated using standard parameters based on the signal of the solvent control as top constraint (100% soft agar growth) and the signal of the Staurosporine control as bottom constraint (0% soft agar growth).

AsPC-1 = test: Soft agar growth assay (Alamar Blue), Example 2, AsPC-1; format: cell-based, human; details: AsPC-1, soft agar, 10 days
Experimental: as §1, §2, §3

[1] = tested on: human pancreatic cancerous cell line MIA PaCa-2; test: Soft agar growth assay (Alamar Blue), Example 1; format: cell-based; details: 240 h, MIA PaCa-2, soft agar, 10 days
Experimental: The effects of vitamins C and K3, alone or in combination, on pancreatic cancer were studied using human pancreatic cancerous cell line MIA PaCa-2. The pancreatic cancerous cells were cultured in DMEM containing 10% FCS and penicillin/streptomycin.
Vitamins C and K3 stock solutions in DMSO were prepared at a concentration of 2 M and 20 mM, respectively. Actinomycin D was used as a reference.
Prior to addition to the pancreatic cancerous cells, stock solutions of the test compounds (vitamins C and K3, and actinomycin D) were diluted in culture medium and 10 μL were added on top of 150 μL of solidified soft agar to diffuse into the soft agar in a 96-well plate. For each well in the 96-well plate, 100 μL of the soft agar bottom layer (0.6% final concentration in complete medium) was poured and left to solidify, and 50 μL of the soft agar top layer (0.4% final concentration) containing the pancreatic cancerous cells (about 5,000 cells/well) were then added on top, solidified. The 96-well plate was incubated overnight at 37° C., 10% CO2. The next day, the test compounds were added at the prescribed final concentrations into the inner wells of the plate. Subsequently, the assays were incubated in cell culture incubators for 10 days. […] Fluorescence intensity was then determined (excitation: 560 nm; emission: 590 nm). […]

SMILES	IC50 (Mia PaCa-2)	IC50 (AsPC-1)	viability at 0.6 µM ([1]; 0.6 μM Vitamin K3 alone)	viability at 6 µM ([1]; 6 μM Vitamin K3 alone)
Cc1c2oc3c(C)ccc(C(=O)N[C@@H]4C(=O)N[C@H](C(C)C)C(=O)N5CCC[C@H]5C(=O)N(C)CC(=O)N(C)[C@@H](C(C)C)C(=O)O[C@@H]4C)c3nc-2c(C(=O)N[C@@H]2C(=O)N[C@H](C(C)C)C(=O)N3CCC[C@H]3C(=O)N(C)CC(=O)N(C)[C@@H](C(C)C)C(=O)O[C@@H]2C)c(N)c1=O [Actinomycin D] (I: T[dV]P[Sar][NMeV] / II: T[dV]P[Sar][NMeV]; ester I:1-I:C, II:1-II:C; linker I:N-II:N via Actinocin(9to1))	0.4 nM	2.7 nM		
CC1=CC(=O)c2ccccc2C1=O [Vitamin K3, 2-methyl-1,4-naphthoquinone]			103.2 ± 0.9%	90.2 ± 12.5%
